Reference: patent publication US20100292185A1, “BETA-LACTAMASE INHIBITORS” (priority 2009, published 2010)
Counter-ions that a name gives are not always drawn. Like-named read-outs stand apart in the source and are kept apart here.

Assays:
[1] = system: E. coli expressing the Class A ESBL SHV-5; test: In vitro antibacterial assay of β-lactamase inhibition (broth microdilution MIC), E. coli SHV-5; format: cell-based
Source text: (§1) To determine the ability of test compounds to potentiate the inhibition of the growth of bacterial strains producing beta-lactamase enzymes, classic cell based screening assays were employed. Five bacteria strains producing beta-lactamase enzymes were used: K. pneumoniae expressing the Class A Extended Spectrum Beta-Lactamase (ESBL) CTX-M-15, E. coli expressing the Class A ESBL SHV-5, E. cloacae expressing the Class C P99+, K. pneumoniae expressing the Class A carbapenemase KPC-2, and P. aeruginosa expressing the Class B metallo β-lactamase VIM-2. In order to evaluate the ability of test compounds to inhibit beta-lactamase activity, Applicants used a modification of the broth microdilution assay. The assay was conducted in Cation Adjusted Mueller Hinton Broth (CAMHB, BD # 212322, BD Diagnostic Systems, Sparks, Md.). Bacteria strains were grown for 3-5 hours in CAMBH broth. All five strains were grown in presence of 50 μg/mL ampicillin to ensure resistance is maintained. In the meantime, test compounds were diluted in DMSO to a 0.1 mg/mL stock. The compounds were added to a microtiter plate and were diluted in 2-fold serial dilutions in CAMHB in a final concentration range of 8 μg/mL to 0.015 μg/ml. […] Each of these compound plates are made in quadruplicate, one for each bacteria strain. In addition to the titration of test compounds the MICs of a panel of cephalosporins is also tested to ensure the strains are behaving consistently from test to test. Once the test compound and cephalosporin are added the plates can be inoculated. Inocula are conducted according to CLSI broth microdilution method. After inoculation the plates are incubated for 16-20 hours at 37° C. then the Minimal Inhibitory Concentration (MIC) of the test compound is determined visually.
(§2) Using the methodology described above, examples of the current invention were evaluated for their ability to inhibit the growth of β-lactamase producing bacteria in the presence of a β-lactam antibiotic.

KPC-2 β-lactamase = target: T1, KPC-2 β-lactamase (Klebsiella pneumoniae, UniProt Q9F663); test: β-lactamase enzyme inhibition assay (nitrocefin substrate), KPC-2; format: biochemical
T1 construct: expressed as native untagged proteins; made in house; host or cells: E. coli BL21(DE3)
T1 sequence (Q9F663 25-293 limits assumed): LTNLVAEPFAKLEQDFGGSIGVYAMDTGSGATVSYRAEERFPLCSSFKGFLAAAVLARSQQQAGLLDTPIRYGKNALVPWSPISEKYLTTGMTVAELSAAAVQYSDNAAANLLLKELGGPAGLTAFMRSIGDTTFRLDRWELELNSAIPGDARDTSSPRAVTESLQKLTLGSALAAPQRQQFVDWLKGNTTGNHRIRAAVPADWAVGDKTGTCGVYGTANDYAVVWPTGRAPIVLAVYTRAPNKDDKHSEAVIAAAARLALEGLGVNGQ
Protocol: (§3) Isolation of β-lactamases. For SHV-5, p99 AmpC, KPC-2 and CTX-M15 β-lactamases, E. coli BL21(DE3) bacterial cells carrying expression plasmids (expressed as native untagged proteins) for the individual β-lactamases were grown in 1 L of Superbroth (Teknova Inc. Hollister, Calif.) supplemented with 100 μg/ml kanamycin and 1×5052 (0.5% glycerol, 0.05% glucose and 0.2% α-lactose) at 35° C. for 18-20 hours. Cells were harvested by centrifugation (4,000×g, 4° C., 20 min), and resuspended in 50 ml of 10 mM HEPES pH 7.5 (1/20 of the initial volume). The cells were lysed by sonication (5 pulses of 45 seconds) at 45 W on ice. The lysates were clarified by centrifugation at 10,000×g for 40 minutes at 4° C. Samples were diluted 5-fold in 50 mM sodium acetate pH 5.0, stored overnight at 4° C., after which they were centrifuged at 10,000×g for 30 minutes to clarify, and filtered through 0.45 μm filters. The samples were loaded onto a 5 ml Capto S sepharose cation exchange column (GE Healthcare) pre-equilibrated with 50 mM sodium acetate pH 5.0. The column was washed with 5 column volumes of 50 mM sodium acetate pH 5.0 to wash out unbound protein and a linear gradient of NaCl (0 to 500 mM) was used to elute the protein (over 16 CV) from the column. Fractions were assayed for β-lactamase activity using Centa (Calbiochem, Gibbstown, N.J.) as a reporter β-lactamase substrate for activity in the isolated fractions. Active fractions were pooled, concentrated and further purified by gel filtration chromatography on a Superdex 75 prep grade gel filtration column (GE Healthcare, Piscataway, N.J.) pre-equilibrated in 50 mM Hepes pH 7.5, 150 mM NaCl. Active fractions were pooled concentrated, quantitated by BCA protein determination (Thermo Scientific, Rockford, Ill.), and frozen at −80° C. in 20% glycerol until use.
(§4) β-lactamase Inhibition. To determine the level of inhibition of β-lactamase enzymes, compounds were diluted in PBS at pH 7.0 to yield concentrations between 100 and 0.005 μM in microtiter plates. An equal volume of diluted enzyme stock was added, and the plates were incubated at 37° C. for 10 min. Nitrocefin solution was then dispensed as substrate into each well at a final concentration of 100 μM, and the plates were immediately read with the kinetic program at 486 nm for 10 min on the SPECTRAMAX® Plus^384 (high-throughput microplate spectrophotometer; Molecular Devices Corp., Sunnyvale, Calif.). Maximum rates of metabolism were then compared to those in control wells (without inhibitors), and percentages of enzyme inhibition were calculated for each concentration of inhibitor. The concentration of inhibitor needed to reduce the initial rate of hydrolysis of substrate by 50% (IC50) was calculated as the residual activity of β-lactamase at 486 nm using the SoftMax Pro 5.0 software (Molecular Devices Corp.).
(§5) Using the methodology described above, examples of the current invention were evaluated for their ability to inhibit β-lactamase enzymes. The results of these assays are summarized in Table 2 for representative enzymes across different subtypes (note SHV-5 and CTXM-15 exemplify different subclasses of Ambler Class A Extended Spectrum Beta Lactamases, KPC-2 exemplifies Class A carbapenemases, P99 represents chromosomal Class C AmpC, VIM-2 exemplifies subclass B1 of metallo-β-lactamases, and OXA-23 represents chromosome-encoded Class D oxacillin-hydrolyzing β-lactamases), NT=not tested.

[2] = target: T2, VIM-2 metallo β-lactamase (Pseudomonas aeruginosa, UniProt Q9K2N0); test: β-lactamase enzyme inhibition assay (nitrocefin substrate), VIM-2; format: biochemical; details: nitrocefin 100 μM, 37° C., PBS pH 7.0; read-out: VIM-2 IC50
T2 construct: made in house
Protocol: as §3
For VIM-2 metallo (β-lactamase, the procedure was identical with the following exceptions: 1) the protein was not pH adjusted to pH 5 with 50 mM sodium acetate, 2) the chromatography step was changed to a 5 ml Q sepharose anion exchange column pre-equilibrated with 50 mM Hepes pH 7.5, and 3) elution of the protein was achieved by a linear gradient of NaCl (0-600 mM). Finally, the VIM-2 purification required a second run (3rd step) on the Q sepharose anion exchange column to achieve acceptable purity (>90%).
as §4, §5

OXA-23 β-lactamase = target: T3, OXA-23 β-lactamase (Acinetobacter baumannii, UniProt Q9L4P2); test: β-lactamase enzyme inhibition assay (nitrocefin substrate), OXA-23 crude extract; format: biochemical; details: nitrocefin 100 μM, 37° C., PBS pH 7.0; read-out: OXA-23 IC50
T3 construct: crude β-lactamase extracts were prepared from 20 ml overnight cultures; endogenous in cells; host or cells: Acinetobacter baumannii cells containing OXA-23 (crude freeze-thaw extract)
T3 sequence (Q9L4P2 18-273): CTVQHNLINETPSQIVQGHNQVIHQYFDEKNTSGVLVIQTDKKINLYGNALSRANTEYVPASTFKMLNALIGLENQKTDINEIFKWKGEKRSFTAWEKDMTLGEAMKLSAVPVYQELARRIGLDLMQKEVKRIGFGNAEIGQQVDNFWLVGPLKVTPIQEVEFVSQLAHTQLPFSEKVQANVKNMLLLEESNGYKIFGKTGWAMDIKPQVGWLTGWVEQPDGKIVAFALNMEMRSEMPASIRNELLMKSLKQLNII
Protocol: For OXA-23 β-lactamase, crude β-lactamase extracts were prepared from 20 ml overnight cultures with shaking. Acenitobacter baumanni cells containing OXA-23 were further diluted 10-fold and grown to mid-log phase (OD at 600 nm, 0.5-0.8) in Mueller-Hinton II (MH-II) broth at 37° C. The cells were pelleted at 5000 g, washed and resuspended in 2 mL PBS pH 7.0. The β-lactamases were extracted by four cycles of freezing and thawing followed by centrifugation. β-lactamase activity in the extracts was measured with the chromogenic cephalosporin nitrocefin. The amount of protein in each β-lactamase preparation was determined by the bicinchoninic acid (BCA) assay.
as §4

p99 AmpC β-lactamase = target: T4, p99 AmpC β-lactamase (Enterobacter cloacae, UniProt P05364); test: β-lactamase enzyme inhibition assay (nitrocefin substrate), P99 AmpC; format: biochemical
T4 construct: expressed as native untagged proteins; made in house; host or cells: E. coli BL21(DE3)
T4 sequence (P05364 21-381): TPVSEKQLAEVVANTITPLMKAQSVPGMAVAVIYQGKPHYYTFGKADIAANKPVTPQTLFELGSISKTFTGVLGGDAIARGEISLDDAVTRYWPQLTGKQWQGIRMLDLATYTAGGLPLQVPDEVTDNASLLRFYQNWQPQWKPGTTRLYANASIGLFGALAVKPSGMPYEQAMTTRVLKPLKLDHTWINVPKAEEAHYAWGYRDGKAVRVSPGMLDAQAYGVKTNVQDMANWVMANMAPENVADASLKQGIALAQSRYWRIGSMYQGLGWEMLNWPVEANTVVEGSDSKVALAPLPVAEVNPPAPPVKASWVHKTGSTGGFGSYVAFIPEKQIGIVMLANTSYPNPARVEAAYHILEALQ
Protocol: as §3, §4, §5

CTX-M15 β-lactamase = target: T5, CTX-M15 β-lactamase (Escherichia coli, UniProt Q9EXV5); test: β-lactamase enzyme inhibition assay (nitrocefin substrate), CTXM-15; format: biochemical
T5 construct: expressed as native untagged proteins; made in house; host or cells: E. coli BL21(DE3)
T5 sequence (Q9EXV5 entry or part of it): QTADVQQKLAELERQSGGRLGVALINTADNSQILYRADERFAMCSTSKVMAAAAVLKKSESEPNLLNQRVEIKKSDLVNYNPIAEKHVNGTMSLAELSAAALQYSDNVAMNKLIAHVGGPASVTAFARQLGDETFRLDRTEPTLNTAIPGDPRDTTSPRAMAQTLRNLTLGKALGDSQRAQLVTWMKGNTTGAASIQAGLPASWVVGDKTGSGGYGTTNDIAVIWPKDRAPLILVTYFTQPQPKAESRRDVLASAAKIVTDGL
Protocol: as §3, §4, §5

[3] = system: K. pneumoniae expressing the Class A carbapenemase KPC-2; test: microbe, parasite or virus in culture; format: cell-based
Source text: as §1, §2

SHV-5 β-lactamase = target: T6, SHV-5 β-lactamase (Klebsiella pneumoniae, UniProt P0A3M1); test: β-lactamase enzyme inhibition assay (nitrocefin substrate), SHV-5; format: biochemical
T6 construct: expressed as native untagged proteins; made in house; host or cells: E. coli BL21(DE3)
T6 sequence (P0A3M1 22-286): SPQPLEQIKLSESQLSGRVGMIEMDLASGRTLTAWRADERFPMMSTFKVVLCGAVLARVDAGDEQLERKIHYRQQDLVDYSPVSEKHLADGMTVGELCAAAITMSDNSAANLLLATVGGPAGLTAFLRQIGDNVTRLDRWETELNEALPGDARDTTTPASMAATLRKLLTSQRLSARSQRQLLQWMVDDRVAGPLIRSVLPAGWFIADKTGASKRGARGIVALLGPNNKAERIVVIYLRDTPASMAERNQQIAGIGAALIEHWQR
Protocol: as §3, §4, §5

[4] = system: E. cloacae expressing the Class C P99+; test: In vitro antibacterial assay of β-lactamase inhibition (broth microdilution MIC), E. cloacae P99+; format: cell-based
Source text: as §1, §2

[5] = system: K. pneumoniae expressing the Class A Extended Spectrum Beta-Lactamase (ESBL) CTX-M-15; test: In vitro antibacterial assay of β-lactamase inhibition (broth microdilution MIC), K. pneumoniae CTX-M-15; format: cell-based
Source text: as §1, §2

[6] = system: P. aeruginosa expressing the Class B metallo β-lactamase VIM-2; test: In vitro antibacterial assay of β-lactamase inhibition (broth microdilution MIC), P. aeruginosa VIM-2; format: cell-based; details: in presence of Ceftazidime 16 μg/mL (Examples 1-56)
Source text: as §1, §2

[7] = in presence of Ceftazidime 8 μg/ml (Examples 1-56)
[8] = nitrocefin 100 μM, 37° C., PBS pH 7.0, read-out: P99 AmpC IC50
[9] = in presence of Piperacillin 16 μg/ml (Examples 57-65)

Compound	MIC of example compound, E. coli SHV-5 [1, 7]	IC50 (KPC-2 β-lactamase)	IC50 [2]	IC50 (OXA-23 β-lactamase)	IC50 (p99 AmpC β-lactamase)	IC50 (CTX-M15 β-lactamase)	MIC of example compound, K. pneumoniae KPC-2 [3, 7]	IC50 (SHV-5 β-lactamase)	MIC of example compound, E. cloacae P99+ [4, 7]	MIC of example compound, K. pneumoniae CTX-M-15 [5, 7]	IC50 (p99 AmpC β-lactamase; [8])	MIC of example compound, P. aeruginosa VIM-2 [6]	MIC of example compound, E. coli SHV-5 [1, 9]	MIC of example compound, K. pneumoniae KPC-2 [3, 9]	MIC of example compound, E. cloacae P99+ [4, 9]	MIC of example compound, K. pneumoniae CTX-M-15 [5, 9]
O=C(N[C@@H](Cc1cccc(C(=O)O)c1O)B(O)O)c1ccc(CN2CCNCC2)cc1 [Example 5, 2(R)-3-[2-(4-(1-piperazinylmethyl)benzoylamino)-2-borono-ethyl]-2-hydroxy-benzoic acid Hydrochloride]	4 µg/mL	1 nM	510 nM	> 1000 nM	1 nM	6 nM	0.03 µg/mL	> 1000 nM	2 µg/mL	1 µg/mL						
CCNCc1ccc(C(=O)N[C@@H](Cc2cccc(C(=O)O)c2O)B(O)O)cc1.Cl [Example 6, 2(R)-3-[2-(4-(N-ethylaminomethyl)benzoylamino)-2-borono-ethyl]-2-hydroxy-benzoic acid Hydrochloride]	4 µg/mL	4 nM	57 nM	> 1000 nM		4 nM	0.03 µg/mL	> 1000 nM	0.25 µg/mL	1 µg/mL	1 nM					
Cl.Nc1ccc(C(=O)N[C@@H](Cc2cccc(C(=O)O)c2O)B(O)O)cn1 [Example 7, (2R)-3-{2-[(2-Amino-pyridine-5-carbonyl)-amino]-2-borono-ethyl}-2-hydroxy-benzoic acid formate salt]	1 µg/mL	4 nM	820 nM	508 nM		1 nM	0.03 µg/mL	320 nM	0.12 µg/mL	0.12 µg/mL	1 nM					
O=C(Cc1ccc(C[n+]2ccccc2)cc1)N[C@@H](Cc1cccc(C(=O)O)c1O)B(O)O [Example 42, formate]		10 nM	> 1000 nM	153 nM	4 nM	4 nM		2 nM								
Nc1ccc(CC(=O)N[C@@H](Cc2cccc(C(=O)O)c2O)B(O)O)cn1 [Example 46, (1R)-1-(6-amino-pyridin-3-yl-acetylamino)-2-(2-hydroxy-3-carboxyphenyl)ethyl-1-boronic acid formate]	0.06 µg/mL	3 nM		209 nM		5 nM	0.007 µg/mL	0.7 nM	0.06 µg/mL	0.03 µg/mL	4 nM	>8 µg/mL				
NCc1ccc(/C(=N/O)C(=O)N[C@@H](Cc2cccc(C(=O)O)c2O)B(O)O)cc1 [Example 53, 3-{2(R)-[2-(4-aminomethyl-phenyl)-2-hydroxyimino-acetylamino]-2-borono-ethyl}-2-hydroxy-benzoic acid hydrochloride]		39 nM	312 nM	350 nM		12 nM		29 nM								
O=C(Cc1ccc(CNc2ccccn2)cc1)N[C@@H](Cc1cccc(C(=O)O)c1O)B(O)O [Example 57, (1R)-1-{2-[4-(pyridin-2-ylaminomethyl)-phenyl]-acetylamino}-1-[(3-carboxy-2hydroxy)benzyl]-methylboronic acid formate]		13 nM		156 nM		4 nM		2 nM			3 nM		1 µg/mL	4 µg/mL	4 µg/mL	>8 µg/mL
O=C(O)CNCc1ccc(CC(=O)N[C@@H](Cc2cccc(C(=O)O)c2O)B(O)O)cc1 [Example 58, (1R)-1-(2-{4-[(1-Carboxymethyl-amino)-methyl]-phenyl}-acetylamino)1-[(3-carboxy-2-hydroxy)benzyl]-methylboronic acid formate]		13 nM		182 nM		4 nM		0.5 nM			6 nM		0.5 µg/mL	0.5 µg/mL	2 µg/mL	>8 µg/mL
